What was measured:
[1] = (§1) The drug is tested on Z-030 corresponding to mouse gut metagenome with ENA study accession number: PRJEB37062 and ENA sample accession number: ERS12561829 for biotransformation under anaerobic condition. The drug concentrations were measured over 9 timepoints collected between 0 and 24 hours of incubation by liquid-chromatography-coupled mass spectrometry (LC–MS); conditions: 2 µM
[2] = as §1, with “Z-028” for “Z-030”, “ERS12561827” for “ERS12561829”; conditions: 2 µM
[3] = as §1, with “Z-018” for “Z-030”, “pig” for “mouse”, “ERS12561817” for “ERS12561829”; conditions: 2 µM
[4] = as §1, with “Z-017” for “Z-030”, “ERS12561816” for “ERS12561829”; conditions: 2 µM
[5] = as §1, with “Z-006” for “Z-030”, “ERS12561806” for “ERS12561829”; conditions: 2 µM
[6] = as §1, with “WLS-350” for “Z-030”, “human” for “mouse”, “ERS12561789” for “ERS12561829”; conditions: 2 µM
[7] = as §1, with “WLS-310” for “Z-030”, “human” for “mouse”, “ERS12561785” for “ERS12561829”; conditions: 2 µM
[8] = as §1, with “WLS-170” for “Z-030”, “human” for “mouse”, “ERS12561762” for “ERS12561829”; conditions: 2 µM
[9] = as §1, with “WLS-086” for “Z-030”, “human” for “mouse”, “ERS12561752” for “ERS12561829”; conditions: 2 µM
[10] = as §1, with “WLS-069” for “Z-030”, “human” for “mouse”, “ERS12561748” for “ERS12561829”; conditions: 2 µM
[11] = as §1, with “WLS-039” for “Z-030”, “human” for “mouse”, “ERS12561746” for “ERS12561829”; conditions: 2 µM
[12] = as §1, with “WLS-010” for “Z-030”, “human” for “mouse”, “ERS12561743” for “ERS12561829”; conditions: 2 µM
[13] = human gut metagenome, 24 h, 2 µM
[14] = human gut metagenome, 24 h, 2 µM; remark: listed apart in the source
[15] = human gut metagenome, 24 h, 2 µM; remark: listed apart in the source
[16] = human gut metagenome, 24 h, 2 µM; remark: listed apart in the source
[17] = human gut metagenome, 24 h, 2 µM; remark: listed apart in the source
[18] = human gut metagenome, 24 h, 2 µM; remark: listed apart in the source
[19] = human gut metagenome, 24 h, 2 µM; remark: listed apart in the source
[20] = human gut metagenome, 24 h, 2 µM; remark: listed apart in the source
Further: call rule not given here.

SMILES | Bacterial Biotransformation [1] | Bacterial Biotransformation [2] | Bacterial Biotransformation [3] | Bacterial Biotransformation [4] | Bacterial Biotransformation [5] | Bacterial Biotransformation [6] | Bacterial Biotransformation [7] | Bacterial Biotransformation [8] | Bacterial Biotransformation [9] | Bacterial Biotransformation [10] | Bacterial Biotransformation [11] | Bacterial Biotransformation [12] | Bacterial Biotransformation [13] | Bacterial Biotransformation [14] | Bacterial Biotransformation [15] | Bacterial Biotransformation [16] | Bacterial Biotransformation [17] | Bacterial Biotransformation [18] | Bacterial Biotransformation [19] | Bacterial Biotransformation [20]
CCOC(=O)[C@H](CCc1ccccc1)N[C@H]1CCc2ccccc2N(CC(=O)O)C1=O [BENAZEPRIL] | Compound metabolized | Compound metabolized | Compound metabolized | Compound metabolized | Compound metabolized | Compound metabolized | Compound metabolized | Compound metabolized | Compound metabolized | Compound metabolized | Compound metabolized | Compound metabolized | Compound metabolized | Compound metabolized | Compound metabolized | Compound metabolized | Compound metabolized | Compound metabolized | Compound metabolized | Compound metabolized
CCCCCOC(=O)Nc1nc(=O)n([C@@H]2O[C@H](C)[C@@H](O)[C@H]2O)cc1F [CAPECITABINE] | Compound metabolized | Compound metabolized | Compound metabolized | Compound metabolized | Compound NOT metabolized | Compound metabolized | Compound metabolized | Compound metabolized | Compound metabolized | Compound metabolized | Compound metabolized | Compound metabolized | Compound metabolized | Compound metabolized | Compound metabolized | Compound metabolized | Compound metabolized | Compound metabolized | Compound metabolized | Compound metabolized
CN(C)CC(c1ccc(O)cc1)C1(O)CCCCC1.O=C(O)CCC(=O)O (stereo not given) [DESVENLAFAXINE SUCCINATE] | Compound NOT metabolized | Compound NOT metabolized | Compound NOT metabolized | Compound NOT metabolized | Compound NOT metabolized | Compound NOT metabolized | Compound NOT metabolized | Compound NOT metabolized | Compound NOT metabolized | Compound NOT metabolized | Compound NOT metabolized | Compound NOT metabolized | Compound NOT metabolized | Compound NOT metabolized | Compound NOT metabolized | Compound NOT metabolized | Compound NOT metabolized | Compound NOT metabolized | Compound NOT metabolized | Compound NOT metabolized
CCCC(=O)Nc1ccc(OCC(O)CNC(C)C)c(C(C)=O)c1 (stereo not given) [ACEBUTOLOL] | Compound NOT metabolized | Compound NOT metabolized | Compound NOT metabolized | Compound NOT metabolized | Compound NOT metabolized | Compound metabolized | Compound metabolized | Compound metabolized | Compound metabolized | Compound metabolized | Compound NOT metabolized | Compound NOT metabolized | Compound metabolized | Compound metabolized | Compound metabolized | Compound metabolized | Compound metabolized | Compound metabolized | Compound NOT metabolized | Compound NOT metabolized

Reference: ChEMBL document CHEMBL5724914, “Linking interpersonal differences in gut microbiota composition and drug biotransformation activity” (2024)
